The text below walks through data of ChEMBL document CHEMBL3045028, “Synthesis, AntiBacteriol, and Antifungal Activities of Some New Benzimidazoles” (1992).

Activity calls are given as the source filed them. The rule behind the calls is not given here.

Common to all, as to assay type: functional
For one assay, the system named is Botrytis cinerea. The assay can be described thus: In vitro antifungal activity against Botryotinia fuckeliana assessed as inhibition at 0.1 %.
In the next assay the test system is Pseudomonas viridiflava. The assay can be described thus: In vitro antibacterial activity against Pseudomonas viridiflava 8 assessed as inhibition at 0.1 %.
For the next assay, the system named is Agrobacterium sp. The assay can be described thus: In vitro antibacterial activity against Agrobacterium radiobacter pv. tumefaciens assessed as inhibition at 0.1 %.
In assay [1] the test system is Pseudomonas savastanoi pv. glycinea. Briefly: In vitro antibacterial activity against Pseudomonas syringae pv. glycinea S1 assessed as inhibition at 0.1 %.
Assay [2] has as its system Pseudomonas savastanoi pv. phaseolicola. Briefly: In vitro antibacterial activity against Pseudomonas syringae pv. phaseolicola E81 assessed as inhibition at 0.1 %.
The test system of assay [3] is Xanthomonas campestris pv. campestris. The assay can be described thus: In vitro antibacterial activity against Xanthomonas campestris pv. campestris KF2 assessed as inhibition at 0.1 %.
Assay [4] has as its system Xanthomonas phaseoli pv. phaseoli. Briefly: In vitro antibacterial activity against Xanthomonas campestris pv. phaseoli assessed as inhibition at 0.1 %.
Assay [5] concerns Xanthomonas euvesicatoria. Briefly: In vitro antibacterial activity against Xanthomonas euvesicatoria P-2092 assessed as inhibition at 0.1 %.
Assay [6] deals with Agrobacterium tumefaciens. The assay can be described thus: In vivo antibacterial activity against Agrobacterium tumefaciens infected carrots assessed as effective at 0.01%.
Another assay concerns Alternaria alternata. The assay can be described thus: In vivo antifungal activity against Alternaria tenuis. Also noted: concentration or dose not given beside the values.

As for `O=[N+]([O-])c1ccc(/C=N/c2nc3ccccc3[nH]2)o1`, the “diameter of the inhibition zone (DIZ)” value is reported as 3 cm in the assay on Botrytis cinerea; 2 cm in the assay with Pseudomonas viridiflava; 3 cm in the assay on Agrobacterium sp.; 2 cm in [1]; 2 cm in assay [2]; 2 cm in assay [3]. For the same molecule, the entries for the “diameter of the inhibition zone (DIZ)” value in assay [4] and in assay [5] were 3 cm and 1 cm, respectively.
For the molecule `CCn1c(/N=C/c2ccc([N+](=O)[O-])o2)nc2ccccc21`, the Efficacy in assay [6] is 70%. The “diameter of the inhibition zone (DIZ)” value in the assay with Botrytis cinerea is given as 3 cm; with Agrobacterium sp. it was 3 cm; in assay [3], 3 cm; in assay [5], 1 cm.
Turning to `Cc1ccc(Cn2c(/N=C/c3ccc([N+](=O)[O-])o3)nc3ccccc32)cc1`, the Efficacy in assay [6] is reported as 70%. Moreover, the “diameter of the inhibition zone (DIZ)” value (in the assay on Botrytis cinerea; in assay [1]) was 1 cm each time. Besides, the inhibition entry (in the assay with Pseudomonas viridiflava; in assay [2]; in [3]; in [4]; in assay [5]) was “inactive” each time.
Consider `Cc1cc2ncn(Cc3ccc(Cl)cc3)c2cc1C`, for which the Efficacy in assay [6] was 30%. Moreover, the inhibition entry (in the assay on Botrytis cinerea; with Pseudomonas viridiflava; in [1]; in assay [2]; in assay [4]) was “inactive” each time. Moreover, the “diameter of the inhibition zone (DIZ)” value in assay [3] and in assay [5] was 1 cm throughout.
In the case of `Nc1nc2ccccc2n1Cc1ccccc1Cl`, the inhibition entry (in the assay on Botrytis cinerea; in assay [1]; in assay [2]) was “inactive” throughout. Besides, the “diameter of the inhibition zone (DIZ)” value with Pseudomonas viridiflava is given as 2 cm; in [3], 3 cm; in assay [4], 1 cm; in assay [5], 2 cm.
In the assay with Alternaria alternata, `Cc1cc2ncn(Cc3ccccc3Cl)c2cc1C` displayed an Efficacy of 50%. For the same molecule, the “diameter of the inhibition zone (DIZ)” value (with Botrytis cinerea; in assay [1]; in [2]; in [3]) was 1 cm in each case. In addition, the inhibition result (with Pseudomonas viridiflava; in assay [4]; in [5]) was “inactive” each time.
As for `O=[N+]([O-])c1ccc(/C=N/c2nc3ccccc3n2Cc2cccc(Cl)c2)o1`, the Efficacy in [6] came out at 100%. In addition, the “diameter of the inhibition zone (DIZ)” value is 1 cm with Botrytis cinerea, 1 cm in [1] and 3 cm in assay [5]. The inhibition result (in the assay on Pseudomonas viridiflava; in [2]; in assay [3]; in assay [4]) was “inactive” each time.
Regarding `COc1cccc(Cn2c(N)nc3cc(C)c(C)cc32)c1`, the Efficacy in the assay on Alternaria alternata stood at 100%.
On to `CCCCn1c(/N=C/c2ccc([N+](=O)[O-])o2)nc2ccccc21`, for which the Efficacy in [6] stood at 70%. In addition, the “diameter of the inhibition zone (DIZ)” value is recorded as 3 cm in the assay with Botrytis cinerea, 3 cm in the assay on Agrobacterium sp., 3 cm in [3] and 1 cm in assay [5].
As for `O=[N+]([O-])c1ccc(/C=N/c2nc3ccccc3n2Cc2ccccc2Cl)o1`, the Efficacy in [6] turned out to be 70%. Moreover, the entries for the “diameter of the inhibition zone (DIZ)” value (with Botrytis cinerea; in assay [1]; in [2]) were 1 cm, 3 cm and 1 cm, respectively. Further, the inhibition entry (with Pseudomonas viridiflava; in assay [3]; in [4]; in assay [5]) was “inactive” throughout.
On to `CCCCCCn1c(/N=C/c2ccc([N+](=O)[O-])o2)nc2ccccc21`, for which the Efficacy in assay [6] worked out at 70%. Also, the “diameter of the inhibition zone (DIZ)” value is recorded as 3 cm in the assay on Agrobacterium sp., 2 cm in [3] and 2 cm in assay [5].
With `Cc1ccc(Cn2cnc3cc(C)c(C)cc32)cc1`, the “diameter of the inhibition zone (DIZ)” value with Botrytis cinerea is reported as 1 cm; in the assay on Pseudomonas viridiflava, 1 cm; in [1], 1 cm; in assay [2] it was 1 cm; in assay [3], 2 cm. Further, the inhibition result in assay [4] and in assay [5] was “inactive” in each case.
Molecule `COc1cccc(Cn2c(N)nc3ccccc32)c1` returned an Efficacy with Alternaria alternata of 100%. Moreover, the “diameter of the inhibition zone (DIZ)” value (with Agrobacterium sp.; in assay [3]; in [5]) was 3 cm throughout.
Take `Cc1cc2nc(/N=C/c3ccc([N+](=O)[O-])o3)n(Cc3ccc(Cl)cc3)c2cc1C`: the Efficacy in assay [6] amounted to 70%. The “diameter of the inhibition zone (DIZ)” value came out at 3 cm in the assay on Botrytis cinerea; 1 cm in the assay on Pseudomonas viridiflava; 2 cm in assay [1]; 2 cm in assay [2]; 1 cm in [3]; 3 cm in assay [4]. Also, the “diameter of the inhibition zone (DIZ)” value in assay [5] is on record as 1 cm.
`CCCCn1c(N)nc2cc(C)c(C)cc21` displayed an Efficacy in the assay on Alternaria alternata of 100%. Moreover, the results for the “diameter of the inhibition zone (DIZ)” value (with Agrobacterium sp.; in assay [3]; in assay [5]) were 3 cm, 2 cm and 2 cm, respectively.
`Cc1cc2nc(N)n(Cc3cccc(Cl)c3)c2cc1C`: the “diameter of the inhibition zone (DIZ)” value came out at 3 cm with Botrytis cinerea; 2 cm with Pseudomonas viridiflava; 2 cm in the assay with Agrobacterium sp.; 2 cm in [1]; 2 cm in assay [2]; 3 cm in assay [3]. Further, the “diameter of the inhibition zone (DIZ)” value in assay [4] and in [5] was 3 cm each time.
In the case of `Nc1nc2ccccc2n1Cc1cccc(Cl)c1`, the Efficacy in the assay with Alternaria alternata is 50%. Also, the inhibition result (in the assay with Botrytis cinerea; in [2]) was “inactive” throughout. Moreover, the “diameter of the inhibition zone (DIZ)” value in the assay with Pseudomonas viridiflava came out at 3 cm; in assay [1], 2 cm; in assay [3], 3 cm; in assay [4], 3 cm; in assay [5] it was 3 cm.
On to `CCCCn1c(N)nc2ccccc21`, for which the values for the Efficacy (in [6]; in the assay on Alternaria alternata) were 30% and 50%, respectively. Further, the “diameter of the inhibition zone (DIZ)” value (with Botrytis cinerea; in the assay with Agrobacterium sp.; in assay [3]; in assay [5]) was 3 cm in each case.
As to `Cc1cc2ncn(Cc3cccc(F)c3)c2cc1C`, the Efficacy in [6] is recorded as 70%; with Alternaria alternata it was 50%. Moreover, the “diameter of the inhibition zone (DIZ)” value (in the assay with Agrobacterium sp.; in assay [3]; in assay [5]) was 3 cm in each case.
Take `CCCCCCn1c(N)nc2ccccc21`: the Efficacy in [6] is 30%. The “diameter of the inhibition zone (DIZ)” value in the assay with Botrytis cinerea worked out at 3 cm.
Turning to `Nc1nc2ccccc2n1Cc1ccc(Cl)cc1`, the “diameter of the inhibition zone (DIZ)” value (with Botrytis cinerea; with Pseudomonas viridiflava; in assay [1]; in assay [2]; in assay [3]) was 1 cm each time. Further, the inhibition entry in [4] and in [5] was “inactive” each time.
In turn, `Cc1cccc(Cn2c(N)nc3ccccc32)c1` registered an Efficacy in the assay on Alternaria alternata of 100%. Further, the “diameter of the inhibition zone (DIZ)” value in the assay on Agrobacterium sp. is listed as 2 cm; in [3], 3 cm; in assay [5] it was 3 cm.
